The source of these data is patent EP4803519A1, “NOVEL PRMT5 INHIBITOR AND USE THEREOF” (Shanghai Apeiron Therapeutics Company Limited, priority 2023, dated 2025).

Where only a bound is given, the exact number is not on record here.

Broadly, the IC50 is the concentration needed to halve the response being measured. Higher therefore signals weaker potency in that assay.

What all share (type): cell-based
For one assay, the system named is HCT-116 wild-type cells. Briefly: Inhibitory activity on proliferation of HCT-116 wild-type cells (Cell-Titer Glo). To be noted: Homo sapiens, 144 h, incubated 6 d, 0-10,000 nM. In short, it runs like this:
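HCT-116 wild-type cells in RPMI-1640 with 10% FBS were plated overnight, then exposed to compound for 6 d at 37°C (0–10,000 nM final, 2.5-fold, 10 points, 0.2% DMSO). Viability was read by Cell-Titer Glo luminescence.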

Assay [1] has as its system HCT-116 MTAP(-/-)deleted cells. Put plainly: Inhibitory activity on proliferation of HCT-116 MTAP(-/-)deleted cells (Cell-Titer Glo). To be noted: Homo sapiens, 144 h, incubated 6 d, 0-1,000 nM. In short, it runs like this:
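HCT-116 MTAP(-/-) cells in RPMI 1640 with 10% FBS were seeded overnight, then exposed to compound (10 points, 2.5-fold dilutions from 1,000 nM; 0.2% DMSO) for 6 d at 37 °C. Viability was read by CellTiter-Glo luminescence.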

The subject of assay [2] is LU99 MTAP(-/-)deleted cells. Briefly: Inhibitory activity on proliferation of LU99 MTAP(-/-)deleted cells (Cell-Titer Glo). To be noted: Homo sapiens, Lu-99, 144 h, incubated 6 d, 0-1,000 nM. In short, it runs like this:
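Log-phase MTAP-deleted LU99 cells in 10%-FBS medium were plated overnight. Compound was then added at final 0–1,000 nM (10 points, 2.5-fold dilution from 1,000 nM) in 0.2% DMSO.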

For assay [3], the system named is LU99 MTAP overexpressing cells. Put plainly: Inhibitory activity on proliferation of LU99 MTAP overexpressing cells (Cell-Titer Glo). To be noted: Homo sapiens, Lu-99, 144 h, incubated 6 d, 0-10,000 nM. In short, it runs like this: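 After overnight seeding, LU99 cells overexpressing MTAP were exposed to compound at 0-10,000 nM (10 points, 2.5-fold dilutions, 0.2% DMSO) for 6 d at 37°C, 5% CO2. Viability read by Cell-Titer Glo luminescence.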

For `CN(C(=O)c1ccc2nc(N)c3cnn(C)c3c2c1)C1COC(C)(C)c2cc(C(F)(F)F)ncc21` (stereo not drawn) [Example 43, (4-Amino-1-methylpyrazolo[4,5-c]quinolin-8-yl)-N-[1,1-dimethyl-7-(trifluoromethyl)(1,4-dihydro-3H-pyrano[4,5-c]pyridin-4-yl)]-N-methylformamide], the IC50 was 2130 nM in the assay with HCT-116 wild-type cells, 9.4 nM in assay [1], 12.3 nM in assay [2] and 2570 nM in assay [3].
The like results for `CN(C(=O)c1cc2c3c(c(N)nc2cn1)COC3)[C@@H]1COC2(CCC2)c2cc(C(F)(F)F)ccc21` [Example 44, (S)-4-amino-N-methyl-N-(7'-(trifluoromethyl)spiro[cyclobutane-1,1'-isochroman]-4'-yl)-1,3-dihydrofuro[3,4-c][1,7]naphthyridine-8-carboxamide] were, in that order, 837 nM, 7.9 nM, 12.2 nM and 673 nM.
The like results for `CN(C(=O)c1cc2c3c(c(N)nc2cn1)COC3)[C@H]1COC2(CCC2)c2cc(C(F)(F)F)ccc21` [Example 45, (R)-4-amino-N-methyl-N-(7'-(trifluoromethyl)spiro[cyclobutane-1,1'-isochroman]-4'-yl)-1,3-dihydrofuro[3,4-c][1,7]naphthyridine-8-carboxamide] were, in that order, above 10000 nM, 874 nM, 944 nM and above 10000 nM.
The like results for `CN(C(=O)c1ccc2nc(N)c3cnn(C)c3c2c1)C1COC(C)(C)c2cc(-c3cccc4c3cnn4C)ccc21` (stereo not drawn) [Example 46, 4-amino-N-(1,1-dimethyl-7-(1-methyl-1H-indazol-4-yl)isochroman-4-yl)-N,1-dimethyl-1H-pyrazolo[4,3-c]quinoline-8-carboxamide] were, in that order, 1100 nM, 4.3 nM, 7.9 nM and 1050 nM.
Regarding `CN(C(=O)c1ccc2nc(N)c3cnn(C)c3c2c1)C1COC(C)(C)c2cc(-n3cc(C(F)(F)F)cn3)ccc21` (stereo not drawn) [Example 47, 4-amino-N-(1,1-dimethyl-7-(4-(trifluoromethyl)-1H-pyrazol-1-yl)isochroman-4-yl)-N,1-dimethyl-1H-pyrazolo[4,3-c]quinoline-8-carboxamide], the IC50 was determined as 1600 nM in the assay on HCT-116 wild-type cells, 5.9 nM in assay [1], 7.5 nM in assay [2] and 1380 nM in assay [3].
Regarding `CN(C(=O)c1ccc2nc(N)c3cnn(C)c3c2c1)[C@@H]1COC(C)(C)c2cc(N3CC4(COC4)C3)ccc21` [Example 49, (S)-4-amino-N-(1,1-dimethyl-7-(2-oxa-6-azaspiro[3.3]heptan-6-yl)isochroman-4-yl)-N,1-dimethyl-1H-pyrazolo[4,3-c]quinoline-8-carboxamide], the concentration for half-maximal inhibition (IC50) amounted to 3850 nM in the assay with HCT-116 wild-type cells, 7.9 nM in assay [1], 19.2 nM in assay [2] and 5890 nM in assay [3].
The like results for `CN(C(=O)c1ccc2nc(N)c3cnn(C)c3c2c1)[C@@H]1COC(C)(C)c2nc(C(F)(F)F)ccc21` [Example 50] were, in that order, above 10000 nM, 413 nM, 525 nM and 7400 nM.
With `CN(C(=O)c1ccc2nc(N)c3cnn(C)c3c2c1)[C@H]1COC(C)(C)c2nc(C(F)(F)F)ccc21` [Example 51], the IC50 in the assay on HCT-116 wild-type cells was determined as 447 nM; in assay [1] it was 3.1 nM; in assay [2], 4.9 nM; in assay [3], 711 nM.
The like results for `CN1CCN(c2ccc3c(c2)C(C)(C)OCC3N(C)C(=O)c2ccc3nc(N)c4cnn(C)c4c3c2)CC1` (stereo not drawn) [Example 80] were, in that order, 3850 nM, 9.4 nM, 16.8 nM and 3660 nM.
For `CN(C(=O)c1ccc2nc(N)c3cnn(C)c3c2c1)[C@@H]1COC(C)(C)c2cc(N3CCNCC3)ccc21` [Example 83] the same measures were 10500 nM, 103 nM, 102 nM and 12700 nM.
For the compound `CN(C(=O)c1ccc2nc(N)c3cnn(C)c3c2c1)[C@@H]1COC2(CCC2)c2cc(C(F)(F)F)ncc21` [Example 84, N-[(4S)-7-(trifluoromethyl)spiro[1,4-dihydro-3H-pyrano[4,5-c]pyridine-1,1'-cyclobutan]-4-yl](4-amino-1-methylpyrazolo[4,5-c]quinolin-8-yl)-N-methylformamide], the IC50 was determined as 1370 nM in the assay with HCT-116 wild-type cells, 6.7 nM in assay [1], 10 nM in assay [2] and 1640 nM in assay [3].
Regarding `CN(C(=O)c1ccc2nc(N)c3cnn(C)c3c2c1)[C@@H]1COC(C)(C)c2cc(N3CCn4cncc4C3)ccc21` [Example 86, N-((4S)-7-imidazo[5,1-c]piperazin-7-yl-1,1-dimethylisochroman-4-yl)(4-amino-1-methylpyrazolo[4,5-c]quinolin-8-yl)-N-methylformamide], the concentration for half-maximal inhibition (IC50) was found to be 3790 nM in the assay on HCT-116 wild-type cells, 21.6 nM in assay [1], 31 nM in assay [2] and 7870 nM in assay [3].
